{
  "source": "patent US20240108614A1",
  "about": "“Methods of Treating Diabetic Cardiomyopathy by Inhibiting GLUT1” (University of Cincinnati, priority 2022, published 2024)",
  "type_in_all_cases": "in vivo",
  "key": {"type 1 diabetic mice [1]": {"tested_on": "type 1 diabetic mice", "assay": "Type 1 diabetes mouse model, treatment started after cardiac dysfunction was confirmed (6 weeks) until the twelfth week", "method": "(§1) To evaluate the impact of GLUT1 and myocardial glucose content changes on cardiac function and structure, 2D echocardiography was performed to measure EF, FS, end-diastolic and end-systolic volumes (EDV, ESV), stroke volume (SV), and cardiac output (CO) using M-mode short axis images, automatic tracing, myocardial strain and strain rate with speckle tracking. From the pulsed wave Doppler spectral waveforms, the peak early and late diastolic transmitral velocities (E, A waves) were measured to obtain the E/A ratio.\nIn another mouse cohort, treatment with either STF-31 or dapa started after cardiac dysfunction was confirmed (6 weeks of type 1 diabetes) and continued until the twelfth week. This treatment corrected both systolic (FIG. 4D) and diastolic (FIG. 4E) dysfunction. Importantly, treatment with either STF-31 or dapa prevented upregulation of KLF5. Thus, inhibition of GLUT1 appears as a novel therapeutic target for diabetic cardiomyopathy that prevents activation of the cardiotoxic FOXO1-KLF5 axis."}, "[2]": {"tested_on": "type 2 diabetic mice (HFD)", "assay": "Type 2 diabetes mouse model (high-fat diet 32 weeks, then 8 weeks of treatment)", "details": "HFD type 2 diabetes mice", "excerpt": "Similar results were shown in mouse models of type 2 diabetes, wherein mice were fed a high-fat diet (HFD) for 32 weeks prior to initiating 8 weeks of treatment with SFT-31."}, "type 1 diabetic mice [3]": {"tested_on": "type 1 diabetic mice", "assay": "Type 1 diabetes mouse model, treatment over twelve weeks (prevention), 2D echocardiography", "method": "To explore whether GLUT1 inhibition holds therapeutic potential against diabetic cardiomyopathy, diabetic mice were treated with a GLUT1 inhibitor (STF-31). Specifically, type 1 diabetes was induced in WT mice and mice were monitored for twelve weeks.\nas §1\nOne group of mice was treated with STF-31 for the entire twelve-weeks period.\nPrior to this disclosure, treatment of diabetic patients with SGLT2 inhibitors (dapa or empagliflozin), has shown the most robust cardioprotective effects. Treatment of diabetic mice with dapa corrected hyperglycemia (FIG. 4A) and prevented systolic (FIG. 4B) and diastolic heart failure (FIG. 4C) in both early and late type 1 diabetes."}, "[4]": {"details": "treatment from 6 weeks of type 1 diabetes until twelfth week, after confirmed cardiac dysfunction"}},
  "data": [
    {"smiles": "CC(C)(C)c1ccc(S(=O)(=O)NCc2ccc(C(=O)Nc3cccnc3)cc2)cc1", "note": "[STF-31]", "values": [
      {"measurement": "diastolic dysfunction", "setting": "type 1 diabetic mice [1]; [4]", "value": "corrected"},
      {"measurement": "systolic dysfunction", "setting": "type 1 diabetic mice [1]; [4]", "value": "corrected"},
      {"measurement": "upregulation of KLF5", "setting": "type 1 diabetic mice [1]; type 1 diabetic mice", "value": "prevented"},
      {"measurement": "KLF5 upregulation", "setting": "[2]", "value": "prevented"},
      {"measurement": "diastolic dysfunction", "setting": "[2]", "value": "did not develop"},
      {"measurement": "hyperglycemia", "setting": "[2]", "value": "persistent hyperglycemia"},
      {"measurement": "systolic dysfunction", "setting": "[2]", "value": "did not develop"},
      {"measurement": "diastolic dysfunction (mitral valve E/A ratio)", "setting": "type 1 diabetic mice [3]", "value": "did not develop"},
      {"measurement": "plasma glucose levels (hyperglycemia)", "setting": "type 1 diabetic mice [3]", "value": "persistent hyperglycemia"},
      {"measurement": "systolic dysfunction", "setting": "type 1 diabetic mice [3]", "value": "did not develop"}
    ]}
  ]
}
